Assay results taken from patent publication US6235514A, “Nucleic acid molecules encoding isopentenyl monophosphate kinase, and methods of use” (Washington State University Research Foundation, priority 1999, dated 2001).
Where “and” joins values, the source holds several entries; their conditions need not be identical. Equal entries are not always repeated.

How the values were obtained:
[1] = target: E. coli IP kinase (ychB, SEQ ID NO:6), partially purified (Escherichia coli, UniProt P62615); experiment: Kinase assay, partially purified recombinant E. coli IP kinase; assay type: biochemical; conditions: for Phosphorylating activity with substrate, in words, partially purified E. coli kinase: partially purified protein; for Cofactor / phosphate donor requirement of kinase activity: IP as substrate, partially purified E. coli kinase
[2] = tested on: E. coli background (repressed, 0.02% glucose); experiment: Kinase assay, E. coli background (repressed) controls; assay type: biochemical; conditions: crude extract, transgene repressed with 0.02% glucose; rates are minimums
[3] = target: E. coli IP kinase (ychB, SEQ ID NO:6) (Escherichia coli, UniProt P62615); experiment: Kinase assay, recombinant E. coli IP kinase (induced), crude extracts; assay type: biochemical; conditions: crude extract, induced with 0.02% arabinose; rates are minimums
[4] = tested on: isolated peppermint oil gland secretory cells; experiment: Feeding studies with isolated peppermint oil gland secretory cells, incorporation into terpenoids; assay type: cell-based, peppermint (Mentha x piperita L. cv. Black Mitcham); conditions: radiolabeled precursor, 23° C., 2 h; average of two experiments; includes geraniol and farnesol
Experimental: Isolation of and Feeding Studies with Peppermint Oil Gland Secretory Cells: Leaves (15-20 g; <10 mm in length) were excised from peppermint plants (Mentha x piperita L. cv. Black Mitcham) and the oil gland secretory cells were isolated by the glass bead abrasion method (McCaskill, D. & Croteau, R., Planta, 197:49-56 [1995]). Following isolation, the secretory cells were washed with 25 mM Tris/HCl buffer (pH 7.3) containing 200 mM sorbitol, 10 mM sucrose, 5 mM MgCl2, 10 mM KCl, 1 mM ethyleneglycol bis(β-aminoethyl ether), 8.5 mM Na2 HPO4, and 0.1 mM Na4 P2 O7, and then suspended in the same buffer supplemented with 2 mM ATP, 0.1 mM NADPH, 0.1 mM NAD^+, 5 mM phosphoenol pyruvate, and 5 mM glucose-6-phosphate. Cell density was determined using a hemocytometer and was adjusted to 1-2×10^5 cellular disks (each containing eight secretory cells) per milliliter suspension. Aliquots (1-1.5 ml) were transferred to 15 ml screw-cap glass vials, and the suspended cells were aerated and incubated at 23° C. for 2 h. At the end of the incubation period, the suspension was extracted three times with 1 ml diethyl ether. The combined organic extract was washed with 1 ml of 1 M Na2 CO3 and dried over Na2 SO4. An aliquot was removed for liquid scintillation counting and, to the remainder, authentic standards (10-50 μg each) of isopentenol, dimethylallyl alcohol, geraniol, farnesol, limonene, menthone, menthol, pulegone, humulene, and caryophyllene were added. These extracts were then slowly concentrated on ice under a gentle stream of N2 to ~200 μl, and were then transferred to conical glass vials and further concentrated to 5-10 μl at 20° C. in preparation for chromatographic analysis.
Radio-GLC Analysis of Peppermint Isoprenoids: Radio-GC was performed according to a published method (Croteau, R. & Satterwhite, D. M. J. Chromatog. 500:349-354 [1990]) with several modifications; 0.25 mm i.d.×30 m AT 1000 fused silica column with 0.2 μm film thickness (Alltech); helium carrier gas at 3-6 ml/min^-1; temperature program from 70 to 200° C. at 5° C./min^-1; injector at 200° C.; thermal conductivity detector at 220° C. and 140 mA; propane quench gas at 10-15 ml/min^-1. The relative peak area corresponding to each biosynthetic product was converted to dpm as a fraction of the total radioactivity determined by liquid scintillation counting prior to concentration. The absolute amount of each component formed was then calculated based on the specific activity of the corresponding radiolabeled substrate.

[5] = target: T1, recombinant peppermint kinase (isopentenyl monophosphate kinase, SEQ ID NO:2) (Mentha piperita, UniProt P56848); experiment: Kinase assay, recombinant peppermint IP kinase, crude extracts of transformed E. coli; assay type: biochemical, peppermint (Mentha x piperita); conditions: crude extract, standard assay conditions
T1 sequence (P56848 98-405): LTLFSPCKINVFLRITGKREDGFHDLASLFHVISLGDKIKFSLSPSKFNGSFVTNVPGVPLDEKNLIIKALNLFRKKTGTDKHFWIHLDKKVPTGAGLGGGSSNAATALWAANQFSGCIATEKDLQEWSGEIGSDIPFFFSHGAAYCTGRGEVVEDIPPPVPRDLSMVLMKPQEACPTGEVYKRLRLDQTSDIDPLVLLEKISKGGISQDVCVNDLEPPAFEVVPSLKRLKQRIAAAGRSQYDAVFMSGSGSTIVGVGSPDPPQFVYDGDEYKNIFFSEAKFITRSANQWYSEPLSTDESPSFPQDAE

Sequence of E. coli IP kinase (ychB, SEQ ID NO:6), partially purified (P62615 whole entry): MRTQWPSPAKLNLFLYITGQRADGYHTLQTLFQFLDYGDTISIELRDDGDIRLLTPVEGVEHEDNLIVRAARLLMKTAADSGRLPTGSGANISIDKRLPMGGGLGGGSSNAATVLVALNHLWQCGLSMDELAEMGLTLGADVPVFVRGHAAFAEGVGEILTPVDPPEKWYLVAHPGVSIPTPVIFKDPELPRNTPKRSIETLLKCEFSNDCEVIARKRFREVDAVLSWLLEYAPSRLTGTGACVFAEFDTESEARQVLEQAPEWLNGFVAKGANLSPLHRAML
Sequence of E. coli IP kinase (ychB, SEQ ID NO:6) (P62615 whole entry): as above

Compound	Total Terpenoids (C10 + C15), rate of incorporation into total monoterpenoids and sesquiterpenoids [4]	Cofactor / phosphate donor requirement of kinase activity [1]	also measured
CC(C)=CCO [DMA, dimethylallyl alcohol]	negligible		Rate (kinase activity with substrate), E. coli (partially purified) ([1]; Ni2+ affinity-purified enzyme, averages with standard deviation): 11 ± 5 pmol/s · g protein; Phosphorylating activity with substrate, in words, partially purified E. coli kinase [1]: readily catalyzed the conversion; Rate (kinase activity with substrate), E. coli (repressed) [2]: < 0.01 pmol/s · g protein; Rate (kinase activity with substrate), E. coli (induced) [3]: < 0.01 pmol/s · g protein; Kinase activity with substrate, recombinant peppermint kinase [5]: ≤ 0.01 pmol (s g protein)^-1
C=C(C)CCOP(=O)(O)O [IP, isopentenyl monophosphate]	43 pmol (h 10^5 cell clusters)^-1		
O=c1ccn([C@@H]2O[C@H](COP(=O)(O)OP(=O)(O)OP(=O)(O)O)[C@@H](O)[C@H]2O)c(=O)[nH]1 [UTP]		did not serve as alternate phosphate donors	
CC(C)=CCOP(=O)(O)OP(=O)(O)O [DMAPP, dimethylallyl diphosphate]	4 pmol (h 10^5 cell clusters)^-1 and < 6 pmol (h 10^5 cell clusters)^-1		
C[C@](O)(CO)[C@H](O)COP(=O)(O)O [MEP, 2-C-methylerythritol-4-phosphate]			Phosphorylating activity with substrate, in words, partially purified E. coli kinase [1]: no phosphorylating activity was detectable; Rate (kinase activity with substrate), E. coli (repressed) [2]: < 0.2 pmol/s · g protein; Rate (kinase activity with substrate), E. coli (induced) [3]: < 0.2 pmol/s · g protein; Kinase activity with substrate, recombinant peppermint kinase [5]: less than 0.2 pmol (s g protein)^-1
Nc1nc2c(ncn2[C@@H]2O[C@H](COP(=O)(O)OP(=O)(O)OP(=O)(O)O)[C@@H](O)[C@H]2O)c(=O)[nH]1 [GTP]		did not serve as alternate phosphate donors	
C=C(C)CCO [ISO, isopentenol]	304 pmol (h 10^5 cell clusters)^-1		
CC(C)=CCOP(=O)(O)O [DMAP, dimethylallyl monophosphate]	6 pmol (h 10^5 cell clusters)^-1 and < 6 pmol (h 10^5 cell clusters)^-1		
[Cl-].[Cl-].[Mg+2] [MgCl2]		dependent upon the presence	
Nc1ncnc2c1ncn2[C@@H]1O[C@H](COP(=O)(O)OP(=O)(O)OP(=O)(O)O)[C@@H](O)[C@H]1O [ATP]		dependent upon the presence	
C=C(C)CCOP(=O)(O)OP(=O)(O)O [IPP, isopentenyl diphosphate]	561 pmol (h 10^5 cell clusters)^-1		
Nc1ccn([C@@H]2O[C@H](COP(=O)(O)OP(=O)(O)OP(=O)(O)O)[C@@H](O)[C@H]2O)c(=O)n1 [CTP]		did not serve as alternate phosphate donors	
